Experimental data as given in US20110092517A1, “Use of PPAR Delta Ligands for the Treatment or Prevention of Inflammation or Energy Metabolism/Production Related Diseases” (Cerenis Therapeutics S.A. & Nippon Chemiphar Co., Ltd., priority 2009, published 2011).

Assays:
[1] = biological target: T1, human PPARα (Homo sapiens, UniProt Q07869); assay: GAL4-PPAR chimera receptor transactivation assay in CV-1 cells (Example 3); type: cell-based; details: GAL4 DBD-hPPARα LBD chimera, read-out: Transactivation activity GAL 4 DBD-hPPAR LBD (EC50-Um) alpha
T1 construct: human PPARα (amino acids 167-468); expressed in transfected cells; host or cells: CV-1
T1 sequence (Q07869 167-468): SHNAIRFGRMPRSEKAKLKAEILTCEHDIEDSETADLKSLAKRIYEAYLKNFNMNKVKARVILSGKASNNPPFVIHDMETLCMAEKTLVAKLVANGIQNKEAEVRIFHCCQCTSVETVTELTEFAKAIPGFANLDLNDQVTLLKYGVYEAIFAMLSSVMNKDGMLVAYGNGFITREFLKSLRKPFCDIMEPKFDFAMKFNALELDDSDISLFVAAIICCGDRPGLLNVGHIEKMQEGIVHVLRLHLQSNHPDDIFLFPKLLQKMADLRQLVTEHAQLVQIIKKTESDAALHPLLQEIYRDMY
Method: (§1) MH100×4-tk-luc (2) was used as the reporter plasmid.
(§2) The luciferase and βGAL activity were measured according to the methods of Umesono, K. et al. (4) with slight modifications. A substrate reagent kit (Picagene, Toyo Ink) was used for the luciferase assay. Assays were performed in duplicate and triplicate for GAL4-chimeras and full-length receptors, respectively. Experiments were repeated at least four times.

[2] = biological target: T2, human PPARγ1 (Homo sapiens, UniProt P37231); assay: as above; type: cell-based; details: GAL4 DBD-hPPARγ LBD chimera, read-out: Transactivation activity GAL 4 DBD-hPPAR LBD (EC50-Um) gamma
T2 construct: PPARγ1 (amino acids 176-477); expressed in transfected cells; host or cells: CV-1
T2 sequence (P37231 176-477 isoform P37231-2): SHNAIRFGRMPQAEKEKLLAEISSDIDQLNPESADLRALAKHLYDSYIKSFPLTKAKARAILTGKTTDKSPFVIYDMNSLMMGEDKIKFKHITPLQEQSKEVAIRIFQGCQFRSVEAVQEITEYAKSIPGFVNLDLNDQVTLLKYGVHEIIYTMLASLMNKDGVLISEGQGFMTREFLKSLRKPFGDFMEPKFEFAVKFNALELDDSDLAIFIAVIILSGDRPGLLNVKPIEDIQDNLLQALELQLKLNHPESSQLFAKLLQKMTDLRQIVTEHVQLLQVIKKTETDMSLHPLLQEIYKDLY
Method: as §1, §2

[3] = biological target: T3, human PPARδ (Homo sapiens, UniProt Q03181); assay: as above; type: cell-based; details: GAL4 DBD-hPPARδ LBD chimera, read-out: Transactivation activity GAL 4 DBD-hPPAR LBD (EC50-Um) delta
T3 construct: PPARδ (amino acids 139-441); expressed in transfected cells; host or cells: CV-1
T3 sequence (Q03181 139-441): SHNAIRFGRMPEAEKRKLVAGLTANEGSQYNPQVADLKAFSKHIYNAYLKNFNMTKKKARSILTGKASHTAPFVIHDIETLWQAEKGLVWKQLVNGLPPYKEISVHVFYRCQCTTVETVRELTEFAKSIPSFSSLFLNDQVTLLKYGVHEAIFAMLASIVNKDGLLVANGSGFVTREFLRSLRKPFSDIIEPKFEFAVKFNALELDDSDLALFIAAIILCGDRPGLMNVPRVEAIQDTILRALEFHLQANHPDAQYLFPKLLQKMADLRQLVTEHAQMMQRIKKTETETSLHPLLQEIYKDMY
Method: as §1, §2

[4] = biological target: T4, human PPARα (Homo sapiens, UniProt Q07869); assay: Full-length receptor transactivation assay (PPREx3-tk-luc, hRXRα) in CV-1 cells; type: cell-based; details: full-length hPPARα + RXRalpha, read-out: Transactivation activity FULL-hPPAR + mRXRalpha (EC50-Um) alpha
T4 construct: expressed in transfected cells; host or cells: CV-1
T4 sequence (Q07869 1-468): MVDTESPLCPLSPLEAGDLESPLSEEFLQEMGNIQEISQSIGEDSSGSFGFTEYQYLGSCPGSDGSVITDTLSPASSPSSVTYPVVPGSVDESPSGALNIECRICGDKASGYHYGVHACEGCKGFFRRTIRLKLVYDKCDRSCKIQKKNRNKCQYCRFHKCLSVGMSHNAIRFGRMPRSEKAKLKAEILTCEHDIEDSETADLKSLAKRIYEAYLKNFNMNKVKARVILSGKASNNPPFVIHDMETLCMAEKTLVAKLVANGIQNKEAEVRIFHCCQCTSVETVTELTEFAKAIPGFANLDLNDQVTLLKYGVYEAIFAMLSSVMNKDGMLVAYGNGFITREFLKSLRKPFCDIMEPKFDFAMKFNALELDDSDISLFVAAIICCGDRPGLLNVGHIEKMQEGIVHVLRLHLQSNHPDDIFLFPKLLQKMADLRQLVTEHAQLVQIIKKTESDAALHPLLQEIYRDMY
T4 sequence (P19793 1-462 partner): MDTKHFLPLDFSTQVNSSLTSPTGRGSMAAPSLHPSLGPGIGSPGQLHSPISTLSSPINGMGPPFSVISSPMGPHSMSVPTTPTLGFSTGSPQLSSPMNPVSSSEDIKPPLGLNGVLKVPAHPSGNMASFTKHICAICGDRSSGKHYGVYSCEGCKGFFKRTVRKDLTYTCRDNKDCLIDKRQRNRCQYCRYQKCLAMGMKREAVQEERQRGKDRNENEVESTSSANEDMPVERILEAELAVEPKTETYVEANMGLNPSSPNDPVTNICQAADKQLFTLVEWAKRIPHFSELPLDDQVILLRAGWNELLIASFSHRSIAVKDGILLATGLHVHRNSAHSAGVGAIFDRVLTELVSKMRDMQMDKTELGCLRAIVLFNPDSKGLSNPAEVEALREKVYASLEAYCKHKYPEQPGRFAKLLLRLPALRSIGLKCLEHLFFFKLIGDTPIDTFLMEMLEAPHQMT
Method: (§3) Receptor expression plasmids: Full-length coding sequences for human PPARα, PPARγ and PPARδ were inserted into the mammalian expression vector pcDNA3.1+ or pCMX. The full-length coding sequence for human RXRα was inserted into pcDNA3.1+.
(§4) Reporter plasmid: PPREx3-tk-luc (3) was used as the reporter plasmid. It contains three copies of rat Acyl-CoA oxidase peroxisome proliferator response element (PPRE) sequence (AGGACA-A-AGGTCA).
as §2

[5] = biological target: T5, human PPARγ (Homo sapiens, UniProt P37231); assay: as above; type: cell-based; details: full-length hPPARγ + RXRalpha, read-out: Transactivation activity FULL-hPPAR + mRXRalpha (EC50-Um) gamma
T5 construct: expressed in transfected cells; host or cells: CV-1
T5 sequence (P37231 1-505): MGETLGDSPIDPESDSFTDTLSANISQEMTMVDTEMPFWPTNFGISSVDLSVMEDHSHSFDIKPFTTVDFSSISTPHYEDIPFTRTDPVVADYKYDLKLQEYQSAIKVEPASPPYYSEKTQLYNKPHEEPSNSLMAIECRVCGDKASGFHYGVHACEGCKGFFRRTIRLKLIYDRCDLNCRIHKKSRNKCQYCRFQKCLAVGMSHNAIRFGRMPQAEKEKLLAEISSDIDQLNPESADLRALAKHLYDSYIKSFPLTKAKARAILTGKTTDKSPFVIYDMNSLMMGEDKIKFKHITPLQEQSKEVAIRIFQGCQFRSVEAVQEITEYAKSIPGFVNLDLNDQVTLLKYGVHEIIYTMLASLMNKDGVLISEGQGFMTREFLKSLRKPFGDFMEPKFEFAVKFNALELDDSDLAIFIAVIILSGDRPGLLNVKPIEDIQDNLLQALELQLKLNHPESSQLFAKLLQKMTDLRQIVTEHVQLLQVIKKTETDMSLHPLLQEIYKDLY
T5 sequence (P19793 1-462 partner): T4 sequence (P19793 1-462 partner)
Method: as §3, §4, §2

[6] = biological target: T6, human PPARδ (Homo sapiens, UniProt Q03181); assay: as above; type: cell-based; details: full-length hPPARδ + RXRalpha, read-out: Transactivation activity FULL-hPPAR + mRXRalpha (EC50-Um) delta
T6 construct: expressed in transfected cells; host or cells: CV-1
T6 sequence (Q03181 1-441): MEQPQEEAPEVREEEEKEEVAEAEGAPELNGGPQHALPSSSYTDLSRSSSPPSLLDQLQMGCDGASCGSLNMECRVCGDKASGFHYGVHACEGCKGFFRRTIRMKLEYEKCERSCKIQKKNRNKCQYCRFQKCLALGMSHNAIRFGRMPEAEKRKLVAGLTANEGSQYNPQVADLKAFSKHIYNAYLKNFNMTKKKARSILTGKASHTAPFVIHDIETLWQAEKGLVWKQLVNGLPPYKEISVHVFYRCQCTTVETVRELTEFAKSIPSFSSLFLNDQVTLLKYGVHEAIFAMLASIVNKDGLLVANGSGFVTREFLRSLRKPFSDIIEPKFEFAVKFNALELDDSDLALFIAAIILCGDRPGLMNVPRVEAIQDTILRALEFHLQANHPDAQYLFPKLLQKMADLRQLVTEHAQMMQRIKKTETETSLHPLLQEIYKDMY
T6 sequence (P19793 1-462 partner): T4 sequence (P19793 1-462 partner)
Method: as §3, §4, §2

[7] = toxicological dosages for 10 days, cited from earlier work; for Peroxisome proliferation in muscle and liver: WT mice

| SMILES | EC50 [1] | EC50 [2] | EC50 [3] | EC50 [4] | EC50 [5] | EC50 [6] | Peroxisome proliferation in muscle and liver [7] | Incidence and severity of skeletal myopathy ([7]; WT vs PPAR-α KO mice) |
| --- | --- | --- | --- | --- | --- | --- | --- | --- |
| Cc1cc([C@H](O)CCc2sc(-c3ccc(C(F)(F)F)cc3)nc2C(C)C)ccc1OCC(=O)O | > 10 µM | > 10 µM | > 0.7 µM |  |  |  |  |  |
| Cc1cc(C(=O)CCc2nc(-c3ccc(Cl)cc3O)oc2C(C)C)ccc1OCC(=O)O | > 10 µM | > 10 µM | 0.032 µM | 3.8 µM | 9.8 µM | 0.058 µM |  |  |
| Cc1cccc(Nc2cc(Cl)nc(SCC(=O)O)n2)c1C [WY-14,643] |  |  |  |  |  |  | significant peroxisome proliferation |  |
| Cc1cc(SCc2sc(-c3ccc(C(F)(F)F)c(F)c3)nc2C)ccc1OCC(=O)O [GW0742] |  |  |  |  |  |  | significant peroxisome proliferation | greater in WT mice |
| Cc1cc2c(CCc3nc(-c4ccc(Cl)cc4Cl)oc3C(C)C)noc2cc1OCC(=O)O | > 10 µM | > 10 µM | 0.025 µM | 7.8 µM | > 10 µM | 0.007 µM |  |  |

More lines, main results first:

| EC50 [1] | EC50 [2] | EC50 [3] | EC50 [4] | EC50 [5] | EC50 [6] | SMILES | Peroxisome proliferation in muscle and liver [7] | Incidence and severity of skeletal myopathy ([7]; WT vs PPAR-α KO mice) |
| --- | --- | --- | --- | --- | --- | --- | --- | --- |
| 3.3 µM | 6.7 µM | 0.018 µM |  |  |  | Cc1cc(C(=O)CCc2sc(-c3ccc(C(F)(F)F)cc3)nc2C(C)C)ccc1SCC(=O)O |  |  |
| > 10 µM | > 8 µM | 0.018 µM | 3.2 µM | 5.8 µM | 0.0022 µM | Cc1cc(C(=O)CCc2sc(-c3ccc(C(F)(F)F)cc3)nc2C(C)C)ccc1OCC(=O)O [drawing 63] |  |  |
| > 10 µM | > 10 µM | > 1 µM | > 8 µM | > 8 µM | > 0.3 µM | Cc1cc(C(O)CCc2sc(-c3ccc(C(F)(F)F)cc3)nc2C(C)C)ccc1OCC(=O)O (stereo not drawn) |  |  |
| > 10 µM | > 10 µM | 0.045 µM | > 10 µM | > 10 µM | 0.019 µM | Cc1cc(C(=O)/C=C/c2sc(-c3ccc(C(F)(F)F)cc3)nc2C(C)C)ccc1OCC(=O)O |  |  |
